# Test results from patent US20040005354A1, “Oral trimethobenzamide formulations and methods” (King Pharmaceuticals, Inc., priority 2002, published 2004).
# Experiments:
# [1] = in 48-72 hr; cited from earlier work
# [2] = Safety assessment (adverse events, laboratory tests) in the four-way crossover study; format: in vivo, human (healthy subjects)
# Source text: Seventy-four healthy, non-smoking, male & female subjects, 18-65 years old were enrolled in this study. A total of 68 subjects completed all the requirements of the protocol. There were no enrollment violations. However, nine of the 74 subjects began the study during the third period of the initial group of subjects. All 74 subjects who received at least one dose of study medication were included in the safety analysis.
# This study was a single center, randomized, open-label, 4-way crossover study in healthy subjects. Dosing was administered in the fasted state. Seventy-four (74) subjects were randomized into the study. All seventy-four subjects received one or more doses of study medication and are therefore included in the safety assessment. On Treatment Day 1 of the first treatment period, each subject was randomized to receive one of four possible study treatment sequences. The treatment groups consisted of the four treatments administered sequentially as DCAB, ADBC, BACD or CBDA. These treatments are shown below.
# A signed informed consent was obtained from each subject. For screening purposes, the following procedures were required of each subject and were performed by the clinical site within 30 days prior to the study: a complete physical examination including a medical history, vital signs, clinical laboratory safety tests on blood and urine, medications taken prior to and during the study, and a serum pregnancy test for female subjects.
# During the treatments, temperature, blood pressure, heart rate and respiratory rate were monitored as a safety measure. A physical examination and clinical laboratory tests were repeated at the completion of the study. Subjects were observed and questioned throughout the study for the occurrence of any adverse events.
# A total of 28 adverse events (AEs) were experienced; 27 were treatment emergent. Twenty-one (21) of these were assessed as related to study treatment. All related AEs are known to occur with trimethobenzamide and were primarily mild or moderate in intensity. One (1) severe AE occurred in one subject which was judged as unrelated to study treatment-severe pharyngitis. […] A summary of treatment emergent adverse events (AEs) is presented in Table 6 using the preferred medical term.
# [3] = 74 subjects, all four treatment periods
substance,measurement,setting,value
"N-[2-(dimethylamino)-ethoxy]-3,4,5-trimethoxybenzamide hydrochloride [trimethobenzamide hydrochloride]",drug excreted unchanged in the urine,[1],30%-50%
same,subjects with decreased red blood cell count at the end of treatment,[2]; 5 percent prior to treatment,11%
same,subjects with low hematocrit at the end of treatment,[2]; 8 percent prior to treatment,34%
same,AEs assessed as related to study treatment,[2]; [3],21
same,serious AEs,[2]; [3],no serious AEs
same,total adverse events (AEs) experienced,[2]; [3],28
same,treatment emergent AEs,[2]; [3],27
same,"dizziness, number",[2]; all four treatment periods,3
same,"neurologic complaints, number",[2]; all four treatment periods,15
same,"paresthesias, number",[2]; all four treatment periods,3
same,hematocrit mean change,[2]; end of treatment vs prior,2.3%
same,hemoglobin mean change,[2]; end of treatment vs prior,0.6 g/dL
same,red blood cell count mean change,[2]; end of treatment vs prior,2e+11 L⁻¹
same,overall safety and tolerability,[2]; in vivo,safe and well tolerated
same,subjects with normal hemoglobin prior to treatment who had low hemoglobin at the end of treatment,[2]; in vivo,13%
same,"headaches, number",[2]; seen in a total of 7 subjects,8
same,"ABDOMINAL PAIN, subjects %",[2]; sequence A D B C (N = 20),5.0%
same,"ABDOMINAL PAIN, subjects n",[2]; sequence A D B C (N = 20),1
same,"CONJUNCTIVITIS, subjects %",[2]; sequence A D B C (N = 20),5.0%
same,"CONJUNCTIVITIS, subjects n",[2]; sequence A D B C (N = 20),1
same,"DIARRHEA, subjects %",[2]; sequence A D B C (N = 20),0.0%
same,"DIARRHEA, subjects n",[2]; sequence A D B C (N = 20),0
same,"DIZZINESS, subjects %",[2]; sequence A D B C (N = 20),15.0%
same,"DIZZINESS, subjects n",[2]; sequence A D B C (N = 20),3
same,"EDEMA, PALMAR, subjects %",[2]; sequence A D B C (N = 20),5.0%
same,"EDEMA, PALMAR, subjects n",[2]; sequence A D B C (N = 20),1
same,"ERYTHEMA, EXTERNAL NOSE, subjects %",[2]; sequence A D B C (N = 20),0.0%
same,"ERYTHEMA, EXTERNAL NOSE, subjects n",[2]; sequence A D B C (N = 20),0
same,"ERYTHEMA, PALMAR, subjects %",[2]; sequence A D B C (N = 20),5.0%
same,"ERYTHEMA, PALMAR, subjects n",[2]; sequence A D B C (N = 20),1
same,"HEADACHE, subjects %",[2]; sequence A D B C (N = 20),5.0%
same,"HEADACHE, subjects n",[2]; sequence A D B C (N = 20),1
same,"HYPOTONIA, subjects %",[2]; sequence A D B C (N = 20),0.0%
same,"HYPOTONIA, subjects n",[2]; sequence A D B C (N = 20),0
same,"INJECTION SITE REACTION, subjects %",[2]; sequence A D B C (N = 20),0.0%
same,"INJECTION SITE REACTION, subjects n",[2]; sequence A D B C (N = 20),0
same,"LARYNGISMUS, subjects %",[2]; sequence A D B C (N = 20),0.0%
same,"LARYNGISMUS, subjects n",[2]; sequence A D B C (N = 20),0
same,"LEG CRAMPS, subjects %",[2]; sequence A D B C (N = 20),0.0%
same,"LEG CRAMPS, subjects n",[2]; sequence A D B C (N = 20),0
same,"NAUSEA AND VOMITING, subjects %",[2]; sequence A D B C (N = 20),5.0%
same,"NAUSEA AND VOMITING, subjects n",[2]; sequence A D B C (N = 20),1
same,"NAUSEA, subjects %",[2]; sequence A D B C (N = 20),5.0%
same,"NAUSEA, subjects n",[2]; sequence A D B C (N = 20),1
same,"Number of Subject With At Least one AE, %",[2]; sequence A D B C (N = 20),25.0%
same,"Number of Subject With No AE, %",[2]; sequence A D B C (N = 20),75.0%
same,"PARESTHESIA, subjects %",[2]; sequence A D B C (N = 20),0.0%
same,"PARESTHESIA, subjects n",[2]; sequence A D B C (N = 20),0
same,"PHARYNGITIS, subjects %",[2]; sequence A D B C (N = 20),0.0%
same,"PHARYNGITIS, subjects n",[2]; sequence A D B C (N = 20),0
same,"RASH, subjects %",[2]; sequence A D B C (N = 20),0.0%
same,"RASH, subjects n",[2]; sequence A D B C (N = 20),0
same,"ABDOMINAL PAIN, subjects %",[2]; sequence B A C D (N = 18),0.0%
same,"ABDOMINAL PAIN, subjects n",[2]; sequence B A C D (N = 18),0
same,"CONJUNCTIVITIS, subjects %",[2]; sequence B A C D (N = 18),0.0%
same,"CONJUNCTIVITIS, subjects n",[2]; sequence B A C D (N = 18),0
same,"DIARRHEA, subjects %",[2]; sequence B A C D (N = 18),0.0%
same,"DIARRHEA, subjects n",[2]; sequence B A C D (N = 18),0
same,"DIZZINESS, subjects %",[2]; sequence B A C D (N = 18),0.0%
same,"DIZZINESS, subjects n",[2]; sequence B A C D (N = 18),0
same,"EDEMA, PALMAR, subjects %",[2]; sequence B A C D (N = 18),0.0%
same,"EDEMA, PALMAR, subjects n",[2]; sequence B A C D (N = 18),0
same,"ERYTHEMA, EXTERNAL NOSE, subjects %",[2]; sequence B A C D (N = 18),0.0%
same,"ERYTHEMA, EXTERNAL NOSE, subjects n",[2]; sequence B A C D (N = 18),0
same,"ERYTHEMA, PALMAR, subjects %",[2]; sequence B A C D (N = 18),0.0%
same,"ERYTHEMA, PALMAR, subjects n",[2]; sequence B A C D (N = 18),0
same,"HEADACHE, subjects %",[2]; sequence B A C D (N = 18),0.0%
same,"HEADACHE, subjects n",[2]; sequence B A C D (N = 18),0
same,"HYPOTONIA, subjects %",[2]; sequence B A C D (N = 18),0.0%
same,"HYPOTONIA, subjects n",[2]; sequence B A C D (N = 18),0
same,"INJECTION SITE REACTION, subjects %",[2]; sequence B A C D (N = 18),5.6%
same,"INJECTION SITE REACTION, subjects n",[2]; sequence B A C D (N = 18),1
same,"LARYNGISMUS, subjects %",[2]; sequence B A C D (N = 18),5.6%
same,"LARYNGISMUS, subjects n",[2]; sequence B A C D (N = 18),1
same,"LEG CRAMPS, subjects %",[2]; sequence B A C D (N = 18),0.0%
same,"LEG CRAMPS, subjects n",[2]; sequence B A C D (N = 18),0
same,"NAUSEA AND VOMITING, subjects %",[2]; sequence B A C D (N = 18),0.0%
same,"NAUSEA AND VOMITING, subjects n",[2]; sequence B A C D (N = 18),0
same,"NAUSEA, subjects %",[2]; sequence B A C D (N = 18),0.0%
same,"NAUSEA, subjects n",[2]; sequence B A C D (N = 18),0
same,"Number of Subject With At Least one AE, %",[2]; sequence B A C D (N = 18),22.2%
same,"Number of Subject With No AE, %",[2]; sequence B A C D (N = 18),77.8%
same,"PARESTHESIA, subjects %",[2]; sequence B A C D (N = 18),11.1%
